Experimental data from patent US9605013B2, “Derivatives of hemin with antibacterial and antiviral activity” (OBSCHESTVO S OGRANICHENNOI OTVETSTVENNOSTIYU …, priority 2011, dated 2017).

What was measured:
Type in all cases: cell-based
[1] = test system: Staphylococcus aureus No. 3797 (MRSA); experiment: Antibacterial specific activity, twofold dilutions, visual growth evaluation; settings: St. aur No. 3797 MRSA; 36° C., 24 hours
Experimental: (§1) The specific activity of compounds also was determined against bacteria strains such as Staphylococcus aureus No. 25923 ATCC (American Type Culture Collection); Staphylococcus aureus No. 100 KC; Staphylococcus epidermidis No. 533; Enterococcus faecalis No. 559; Enterococcus faecium No. 569, Staphylococcus aureus No. 5 (MRSA), Staphylococcus aureus No. 3797 (MRSA). Staphylococcus aureus was cultured on the Trypticase Soy Agar (BBL) commercially available dry medium. Enterococcus faecalis was cultured on the Columbia Agar (BBL) commercially available dry medium. These media were sterilized by autoclaving at 121° C. for 15 min. Bacterial inoculum was constant and was 5×10^5 CFU/ml (10^5 CFU/0.2 ml). For water-soluble compounds, wells from 2nd through 8th were added with the solvent (water) in an amount of 15 μL per well, then the 1st well was added with 30 μL of the stock solution of the tested compound in […] with a concentration of […], and the concentration was adjusted to 0.007×10^3 M by serial twofold dilutions. A 10-μL portion was taken from every well, and 190 μL of the bacterial culture (10^5 CFU) was added per well. For DMSO-soluble compounds, wells from 2nd through 8th were added with the solvent (DMSO) in an amount of 10 μL per well, then the 1st well was added with 20 μL of the stock solution of the tested compound in […] with a concentration of […], and the concentration was adjusted to 0.039×10^3 M by serial twofold dilutions. A 2-μL portion was taken from each well, and 198 μL of the bacterial culture (10^5 CFU) was added per well.
(§2) The control comprised wells free of tested compounds (culture growth control). In addition, purity control of nutritional media and solvents was used. Plates were incubated in a thermostat at 36° C. for 24 hours.
(§3) Culture growth was evaluated visually by comparison of how microorganisms grew in the presence of tested compounds and in the absence of them. MIC was set equal to the last dilution of a tested agent which suppressed bacterial culture growth.

[2] = test system: Staphylococcus aureus No. 5 (MRSA); experiment: as above; settings: St. aur No. 5 MRSA; 36° C., 24 hours
Experimental: as §1, §2, §3

[3] = test system: Micrococcus luteus BKM Ac-2230; experiment: Antibacterial activity, serial dilutions in liquid MH medium
Experimental: (§4) The antibacterial activity of the compounds was determined against strains of gram-positive bacteria such as Staphylococcus aureus 209P, Enterococcus faecalis BKM B-871, Micrococcus luteus BKM Ac-2230, Bacillus subtilis BKM B-501, and gram-negative bacteria such as Pseudomonas aeruginosa PAO1 and Escherichia coli KM MGU C-600. BKM strains were acquired from the All-Russia Collection of Microorganisms at the Institute for Biochemistry and Physiology of Microorganisms, Russian Academy of Sciences. Strain Staphylococcus aureus 209P was acquired from the Collection of Microorganisms at the Department of microbiology of the Faculty of Biology of Lomonosov Moscow State University, and Pseudomonas aeruginosa PAO1 was acquired from the Collection of Microorganisms at the Institute of Bioorganic Chemistry of the Russian Academy of Sciences.
(§5) The main parameters characterizing the antibacterial activity are the minimal inhibitory concentration (MIC) and minimal bactericidal concentration (MBC). […] MBC is the least concentration that causes the death of all cells.
(§6) MIC was quantified by inhibiting culture growth in a liquid medium with serial dilutions of compounds using a modified procedure [Amsterdam, D., 1966. “Susceptibility testing of antimicrobials in liquid media,” pp. 52-111. In Loman, V., ed. Antibiotics in laboratory medicine, 4th ed. Williams and Wilkins, Baltimore].
(§7) Bacteria were cultured and tested on an MH liquid medium (Mueller-Hinton medium: a dry extract of beef broth, 4 g/L; starch, 1.5 g/L; casein hydrolyzate, 17.5 g/L; Sigma-Fluka Catalog No. 70192) at 37° C., 100% humidity, and under stirring. Cultures (within 4 to 7 passages after thawing) in the exponential growth phase were used for tests.
(§8) All tested compounds absorb light at 595 nm, a wavelength used for evaluating bacterial culture growth. Therefore, a correction for absorption was applied in estimating the optical density of bacterial suspensions for each compound with account for its concentration in the well. Bacterial growth inhibition (GI) as percentage after 20 hours of incubating cells with compounds was derived from the optical density (A) measured in every well at a wavelength of 595 nm using the equation: GIi=[(Act−Ac0)−(Ait−Ai0)]×100/(Act−Ac0), (1) wherein the subscripts have the following meanings: i denotes the well number, c denotes a control well with bacteria whereto the tested compound is not inserted, 0 refers to the measurement taken immediately once the tested compound was inserted to the well, and t refers to the measurement taken 20 hours after the compound was inserted.
(§9) The protocol for the determination of experimental antibacterial activity of the tested compounds was as follows. A cryovial with the test strain culture in a medium with 7% DMSO stored in liquid nitrogen, was rapidly defrosted, and 1.5 mL of the fresh MH medium was inoculated with 100 μL of the cell suspension. Cells were grown for one day at 37° C. and stirred on an orbital shaker at 150 rpm. The morphologic features of the strain and the absence of contamination with foreign bacteria were verified by: (a) inoculation on an agarized (15 g/L agar) MH medium and observation of the shape and color of the grown colonies and (b) examination of characteristic morphologic features under a microscope (Mikmed-2, LOMO, Russia) equipped with a 40× objective lens. Further, the bacteria were cultured in 1 mL of the liquid MH medium at 37° C. under stirring. The cells were reseeded every day. Cell cultures were used in tests starting with 3rd reseeding and ending with 6th one.
(§10) For testing, 5 μL of a bacterial suspension in the stationary growth phase was transferred to 1 mL of a sterile MH medium and incubated until the exponential growth phase was attained (3 to 5 h, 37° C., stirring at 150 rpm). To estimate the microorganism concentration, the optical density (A) of the resulting bacterial culture was measured at a wavelength of 595 nm. […]

[4] = test system: Bacillus subtilis BKM B-501; experiment: as above; settings: MH medium, 20 h, 37° C., 100% growth inhibition
Experimental: as §4, §5, §6, §7, §8, §9, §10

[5] = test system: Staphylococcus aureus No. 100 KC; experiment: Antibacterial specific activity, twofold dilutions, visual growth evaluation; settings: S. aureus 100 KC; 36° C., 24 hours
Experimental: as §1, §2, §3

[6] = test system: Enterococcus faecalis No. 559; experiment: as above; settings: E. faecalis 559; 36° C., 24 hours
Experimental: as §1, §2, §3

Escherichia coli 4300 = experiment: as above; settings: E. coli 4300; 36° C., 24 hours
Experimental: [Worded in the source for another organism; this organism is reported under the same test.] as §1, §2, §3

[7] = test system: Staphylococcus aureus No. 25923 ATCC; experiment: as above; settings: S. aureus 25923; 36° C., 24 hours
Experimental: as §1, §2, §3

[8] = test system: Staphylococcus epidermidis No. 533; experiment: as above; settings: S. epidermis 533; 36° C., 24 hours
Experimental: as §1, §2, §3

[9] = test system: Vancomycin-resistant Enterococcus faecium 569; experiment: as above; settings: Vancomycin-resistant E. faecium 569; 36° C., 24 hours
Experimental: as §1, §2, §3

[10] = test system: Herpes Simplex Virus type 2 strain G (No. VR-734 ATCC); experiment: Antiviral activity, virus cytopathogenic action in Vero cells; set-up: key: 0: CPA (cytopathogenic action) is not detected; 1: up to 25% virus-infected monolayer; from 25% to 50%; 3: from 50% to 75%; 4: from 75% to 100%; settings: 48 hours
Experimental: (§11) […] used in the study were used Herpes Simplex Virus type 1 (the Collection of Microorganisms at the Scientific Research Institute of Virology, strain EC), Herpes Simplex Virus type 2 strain G (No. VR-734 ATCC), and human cytomegalovirus strain AD169 (No. VR-538 ATCC). Herpes Simplex viruses type 1 and type 2 were cultured in Vero cells. The cells were incubated in MEM Eagle growth medium (MEM, BioloT, St-Petersburg, 1.3.3) supplemented with 10% fetal bovine serum (BioloT, St-Petersburg, 1.3.12) in Sanyo MCO-15AC gas-flow thermostat (37° C., 5% CO2) (Tokyo, Japan). A seed dose was 2×10^5 cells/ml in the starting inoculum or 2×10^4 cells/well. Herpes Simplex viruses were cultured under the same conditions in the MEM medium without serum (maintenance medium). Starting viral titers were 10^7 TCID50/ml.
(§12) For DMSO-soluble preparations, stock solutions were prepared in a concentration of 10 mM in DMSO. For water-soluble preparations, a stock solution prepared had the same concentration in the MEM medium (Minimal Essential Medium) for cell cultures. To control cytotoxicity (see below), the stock solution was diluted in the medium to a concentration of 100 μM and ten-fold serial dilutions of the preparations were made in the MEM medium (for DMSO-soluble compounds—in the MEM medium comprising 3% DMSO). The following concentrations of the preparations were used in the study of […]: if toxicity was not found, the concentrations of 100 μM preparations were 100, 10 and 1 μM; if toxicity was detected, the concentrations of 100 μM preparations were 10, 1, and 0.1 μM. Acyclovir (10 μg/ml) was used for Herpes Simplex viruses of both types as a reference preparation to control the viral model validity.
(§13) To study antiviral activity, plate wells with a cell monolayer were added with the preparations in an amount of 0.1 ml/well. To compensate a reduction in the concentration of the preparations, which takes place in the following addition of viruses, twofold concentrations of compounds (i.e. 200, 20 and 2 or 20, 2 and 0.2 μM for […] concentrations of 100 μM preparations, respectively) were used, incubated for an hour and then were infected with the examined 0.1 ml/well viruses in doses 1, 10 and 100 TCID50 (50% tissue infectious dose).
(§14) The virus-specific cytogenic action was manifested in an increase in the size of cells, their rounding, and detachment from a substrate. These morphological characteristics served as their marked difference from the cells subjected to a toxic action of high concentrations of the examined preparations. The latter acquired spindle-like shape, lost contacts with neighboring cells of the monolayer, and their boundaries became more distinct.
(§15) Intensity of the virus-specific changes in the cells were semi-quantified using a 4-score system: 0—CPA (cytopathogenic action) is not detected; 1—up to 25% virus-infected monolayer; 2—from 25% to 50%; 3—from 50% to 75%; and 4—from 75% to 100%. The antiviral activity of a compound was evaluated according to their ability to reduce the manifestation of cytopathogenic action in the plate wells compared to the control values. Differences with the control values by 1 score and more were considered to be significant.

[11] = test system: Herpes Simplex Virus type 1 strain EC; experiment: as above; set-up: key: 0: CPA (cytopathogenic action) is not detected; 1: up to 25% virus-infected monolayer; from 25% to 50%; 3: from 50% to 75%; 4: from 75% to 100%; settings: 48 hours
Experimental: as §11, §12, §13, §14, §15

Molecule	MIC [1] [µM]	MIC [2] [µM]	MIC [5] [µM]	MIC [6] [µM]	MIC (Escherichia coli 4300) [µM]	MIC [7] [µM]	MIC [8] [µM]	MIC [9] [µM]	further results
6,7-bis-(Methyl Ester N^α—(N^G-Nitro)Arginyl)-Protohemin (IX) [III]	25	25	–	–	–	–	–	–	MIC ([3]; MH medium, 20 h, 37° C., 100% growth inhibition): 1.6 µM; MBC ([3]; no colonies on agarized MH medium): 6.3 µM; MIC [4]: 12.5 µM
6,7-bis-[(Amide N^α-L-Arginyl)-L-Seryl]-Protohemin (IX) [XXIII]	>50.0	>50.0	>50.0	>50.0	>50.0	>50.0	>50.0	>50.0	–
6,7-bis-[(Amide N^α-L-Seryl)-L-Arginyl]-Protohemin (IX) [XX]	1.3	3.12	0.65	1.56	>50.0	1.3	1.56	6.25	–
6,7-bis-[(Diamide N^α-L-Seryl)-L-glutamyl]-Protohemin (IX) [XII]	–	–	–	–	–	–	–	–	manifestation of the virus CPA ([10]; HSV-2, virus dose 1, concentration 0.1 μM): 0.5 scores; manifestation of the virus CPA ([10]; HSV-2, virus dose 1, concentration 1 μM): 0.5 scores; manifestation of the virus CPA ([10]; HSV-2, virus dose 1, concentration 10 μM): 0^1; manifestation of the virus CPA ([10]; HSV-2, virus dose 10, concentration 0.1 μM): 2 (from 25% to 50%); manifestation of the virus CPA ([10]; HSV-2, virus dose 10, concentration 1 μM): 1.5 scores; manifestation of the virus CPA ([10]; HSV-2, virus dose 10, concentration 10 μM): 1^1 (up to 25% virus-infected monolayer); manifestation of the virus CPA ([10]; HSV-2, virus dose 100, concentration 0.1 μM): 3 (from 50% to 75%); manifestation of the virus CPA ([10]; HSV-2, virus dose 100, concentration 1 μM): 3 (from 50% to 75%); manifestation of the virus CPA ([10]; HSV-2, virus dose 100, concentration 10 μM): 3 (from 50% to 75%)
6,7-bis-[(Methyl Ester N^α-L-Arginyl)-L-Seryl]-Protohemin (IX) [XXI]	1.56	0.65	0.65	1.56	>50.0	0.39	0.78	6.25	–
Nc1nc2c(ncn2COCCO)c(=O)[nH]1 [Acyclovir, reference compound]	–	–	–	–	–	–	–	–	manifestation of the virus CPA ([10]; HSV-2, virus dose 1, 10 μg/ml): 0^1; manifestation of the virus CPA ([10]; HSV-2, virus dose 10, 10 μg/ml): 0^1; manifestation of the virus CPA ([10]; HSV-2, virus dose 100, 10 μg/ml): 0^1; manifestation of the virus CPA ([11]; HSV-1, virus dose 1, 10 μg/ml): 0^1; manifestation of the virus CPA ([11]; HSV-1, virus dose 10, 10 μg/ml): 0^1; manifestation of the virus CPA ([11]; HSV-1, virus dose 100, 10 μg/ml): 0^1
